# Where two headings read alike, the source gives them in different places.
# How the values were obtained:
# [1] = test system: patient-derived GBM43 glioblastoma spheroids; experiment: GBM43 spheroid viability (Alamar blue); assay type: cell-based, human; details: for cytotoxicity at 10 µM: Homo sapiens, GBM43 cell, read-out: inhibition of GBM43 cell viability; for effect on GBM43 cancer cell viability / growth: three-dimensional spheroids
# Method: Early-passage GBM43 cells were cultured in ultralow adherence plates (Corning Inc.) at 1 to 2×10^3 cells/mL in DMEM supplemented with 1% […] (Invitrogen), 2% B27 (Invitrogen), 25 ng/mL epidermal growth factor (EGF, 25 ng/mL fibroblast growth factor (FGF) (R&D Systems, Inc.), […], 2 ng/mL platelet growth factor, and 100 ng/mL each of penicillin and streptomycin (Invitrogen Inc.). Individual cells were recovered from spheres by incubation with Accutase (Sigma-Aldrich) for 10-15 minutes. Cells (50-100/well) were then seeded in fresh sphere-forming media in 96-well plates. After 2-3 days, Neurospheres containing 6 to 8 cells were treated with compounds 1, 2, and 5.
# HEK-293 were cultured in DMEM with glutamine (Cellgro, Manassas, Va.) supplemented with 10% FBS and 1% penicillin/streptomycin in a 5% CO2 atmosphere at 37° C. Tumors were expanded by passage in the flank of NOD/SCIDγnull mice. To generate GBM43 cell lines, tumors were harvested, disaggregated, and maintained in 2.5% FBS for 14 days on Matrigel-coated plates (BD Biosciences) to remove murine fibroblasts. In-vitro GBM43 cell lines were propagated in DMEM with 10% FBS for no more than 7 passages. Cell line identity was confirmed by DNA fingerprint analysis (IDEXX BioResearch) for species and baseline short-tandem repeat analysis testing. GBM43 spheroids were generated by plating early-passage cells at 2.5×10^4 cells per well in 96-well ultralow attachment plates (Corning Inc.) in DMEM/F12 (1:1; GIBCO) supplemented with 2% B27 supplement (GIBCO), 20 ng/mL epidermal growth factor (EGF), and 20 ng/mL fibroblast growth factor (FGF) (Peprotech) for 2 days. The spheroids were then treated with compounds 1, 2, and 5 and growth analyzed by Alamar blue staining.
# CTGF transcript levels = experiment: qRT-PCR of CTGF transcript in GBM43 cells; assay type: cell-based, human; details: FIG. 8C
# TEAD4 = TEAD4 (Homo sapiens, UniProt Q15561); experiment: Covalent streptavidin pull down of myc-TEAD4 from HEK293 cell lysates; assay type: cell-based; design: expressed in transfected cells; host or cells: HEK293; details: higher concentrations, with compound 9
# TEAD4, sequence (Q15561 whole entry): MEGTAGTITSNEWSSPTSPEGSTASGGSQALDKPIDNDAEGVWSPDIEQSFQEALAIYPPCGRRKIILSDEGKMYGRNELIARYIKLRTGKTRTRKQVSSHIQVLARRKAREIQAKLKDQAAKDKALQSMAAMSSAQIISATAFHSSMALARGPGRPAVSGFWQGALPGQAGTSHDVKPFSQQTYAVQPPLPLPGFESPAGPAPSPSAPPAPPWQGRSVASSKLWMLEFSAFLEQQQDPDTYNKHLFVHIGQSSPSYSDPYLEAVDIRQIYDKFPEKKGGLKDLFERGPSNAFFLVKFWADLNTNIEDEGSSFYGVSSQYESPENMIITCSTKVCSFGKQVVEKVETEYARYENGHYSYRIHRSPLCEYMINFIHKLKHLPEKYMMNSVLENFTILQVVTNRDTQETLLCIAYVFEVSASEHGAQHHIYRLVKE
# Method: HEK293 cells transfected with the myc-TEAD4 construct were grown for 48 h and then treated with DMSO or with 25 μM of compound 2 for an additional 48 h. Cells were then harvested in lysis buffer (50 mM Tris-HCl, pH 7.3, 150 mM NaCl, 0.5 mM EDTA, 1% Triton X-100, PhosSTOP phosphatase inhibitor cocktail, and EDTA-free protease inhibitors cocktail). Cell lysates containing 2 mg of protein were incubated with the indicated compounds or DMSO for 24 h. Extracts were then incubated with Dynabeads M-280 Streptavidin (Sigma-Aldrich) for 2 h at 4° C. Dynabeads were then washed and bound proteins were denatured and eluted according to the manufacturer's instructions. Relative levels of myc-TEAD4 from each complex were measured by immunoblot analysis with the anti-c-Myc antibody (1:5,000, Sigma-Aldrich).
# TEAD4.Yap1 interaction [2] = molecular target: T1, TEAD4.Yap1 interaction (Homo sapiens, UniProt Q15561); experiment: Fluorescence polarization, GST-TEAD4 with FAM-Yap60-99 peptide; assay type: binding; design: TEAD4 (217-434), TEAD4 (217-434) Cys367Ser mutant and Yap1 (Full-length) were expressed as GST-fusion proteins; made in house; host or cells: E. coli BL-21 (DE3), pGEX-6P-1; details: for inhibition / maximum inhibition of TEAD4.Yap1 interaction: 24 h incubation at 4° C.; for t1/2^∞ (half-life of inactivation): corresponding to kinact
# T1 sequence (Q15561 217-434): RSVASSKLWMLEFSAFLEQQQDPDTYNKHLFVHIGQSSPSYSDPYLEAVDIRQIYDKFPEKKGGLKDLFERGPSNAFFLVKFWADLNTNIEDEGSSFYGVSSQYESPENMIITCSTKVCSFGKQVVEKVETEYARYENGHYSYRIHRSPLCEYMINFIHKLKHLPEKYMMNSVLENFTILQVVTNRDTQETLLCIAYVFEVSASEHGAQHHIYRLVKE
# Method: GST-TEAD4, GST-TEAD4 Cys367Ser mutant or HIS-TEAD2 interaction with Yap1 was investigated using a fluorescently-labeled peptide (FAM-Yap60-99), consisting of FAM-labeled TEAD-binding peptide fragment of Yap1 (FAM-[…] TVPMCLRKLPASFCKPP), which has a disulfide bridge (American Peptide, Sunnyvale, Calif.). Addition of FAM-Yap60-99 to the TEAD was followed by measurement of changes in polarization. 40 μL of 125 nM GST-TEAD4 WT or GST-TEAD4 Cys367Ser in assay buffer (PBS with 0.01% v/v Triton-X100) or 40 μL of 64 nM HIS-TEAD2 was added to a 384-well black polystyrene plate (Cat. No. 262260; Nunc, Roskilde, Denmark) and incubated with 5 μL of […] serially diluted compounds in assay buffer supplemented with 20% v/v DMSO for 24 h at 4° C. Finally, 5 μL of 160 nM FAM-Yap60-99 peptide was added, the plate centrifuged, and the polarization was measured on an Envision Multilabel Plate Reader (PerkinElmer, Waltham, Mass.) using a filter set with excitation and emission wavelengths of 485 and 535 nm, respectively. Percent inhibition was calculated as relative to a minimum inhibition control, which is without compound, and a maximum inhibition control, which is without a TEAD.
# For the determination of the inhibition efficiency kinact/K1, the protein compound incubation time was varied between […], prior to the addition of the FAM-Yap60-99 peptide and fluorescence polarization measurements. The progressive decrease in TEAD activities were plotted against time for all 10 concentrations ([…]) of the compounds and the observed rate of inhibition (kobs) was calculated by fitting a simple exponential function.
# The observed rate of inhibition was then plotted against the concentration of the compound and a […] function kobs=kinact[Inhibitor]/K1+[Inhibitor] was fitted to determine the kinact and K1 values.
# TEAD4.Yap1 interaction [3] = molecular target: T1, TEAD4.Yap1 interaction; experiment: as above; assay type: binding; design: TEAD4 (217-434), TEAD4 (217-434) Cys367Ser mutant and Yap1 (Full-length) were expressed as GST-fusion proteins; made in house; host or cells: E. coli BL-21 (DE3), pGEX-6P-1; details: 0.5, 6, 24, 48 h incubation at 4° C., 0.1-100 μM
"reversibility of inhibition after dialysis (TEAD4.Yap1 interaction [2]; 50 μM, 24 h at 4° C., then dialyzed against buffer 24 h at 4° C.)",inhibition / maximum inhibition of TEAD4.Yap1 interaction (TEAD4.Yap1 interaction [2]),maximum inhibition of TEAD4 (TEAD4.Yap1 interaction [2]; 48 h incubation at 4° C.),t1/2^∞ (half-life of inactivation) (TEAD4.Yap1 interaction [2]),kinact (TEAD4.Yap1 interaction [3]; read-out: maximum rate of inactivation (kinact) (converted)),kinact (TEAD4.Yap1 interaction [3]; read-out: rate of inactivation kinact (converted)),Compound,cytotoxicity at 10 µM [1],effect on GBM43 cancer cell viability / growth [1],CTGF transcript levels versus vehicle (CTGF transcript levels),competition with compound 9 for binding to TEAD4 (TEAD4)
irreversible inhibitor,53%,80%,18.2 h,1.06e-05 s⁻¹,–,"O=C(CCl)c1ccccc1Nc1cccc(C(F)(F)F)c1 [Compound 2, 2-chloro-1-(2-((3-(trifluoromethyl)phenyl)amino)phenyl)ethanone]",30%,inhibited GBM43 cancer cell viability,suppressed CTGF transcript levels,compete with compound 9 for binding to TEAD4
–,81%,–,14.3 h,–,1.36e-05 s⁻¹,"O=C(CCl)c1ncccc1Nc1cccc(C(F)(F)F)c1 [Compound 5, 2-chloro-1-(3-((3-(trifluoromethyl)phenyl)amino)pyridin-2-yl)ethanone]",30%,inhibited GBM43 cancer cell viability,suppressed CTGF transcript levels,compete with compound 9 for binding to TEAD4
